The results in this text go back to patent publication US12048691B2 (SPERO THERAPEUTICS, INC., priority 2020, dated 2024).

The subject of assay [1] is E. coli. As to the kind of experiment: Broth microdilution MIC against characterized subsets of UTI E. coli (2018-2020). The assay is classed as cell-based. As to conditions: for MIC50 / MIC90: Escherichia coli; for MIC50: read-out: MIC50; for MIC90: read-out: MIC90. From the text: Isolates were collected from medical centers in all 9 US Census Regions and tested by broth microdilution. MIC interpretation was based on CLSI. Isolates that met MIC criteria were subjected to genome sequencing, followed by screening of extended-spectrum b-lactamase (ESBL) genes and epidemiology typing (MLST).

For assay [2], the system named is other methicillin-susceptible coagulase-negative staphylococci (MSCONS). The assay can be described thus: Broth microdilution against Gram-positive clinical isolates. The assay is classed as cell-based. As to conditions: 29 isolates. The protocol:
The purpose of this study was to investigate the in vitro activity of tebipenem and comparator agents, including ertapenem and meropenem, against a recent collection of Gram-positive isolates associated with clinical infections. The susceptibility of 580 Gram-positive organisms were tested, including: […] Bacterial species were identified by JMI Laboratories using standard microbiology methods and matrix-assisted laser desorption ionization-time of flight mass spectrometry (Bruker Daltonics, Bremen, Germany). […] Isolates were tested in a central laboratory (JMI Laboratories) for antimicrobial susceptibility using the CLSI […] (2018) reference broth microdilution method. JMI Laboratories produced frozen-form 96-well panels and used cation-adjusted Mueller-Hinton broth (CA-MHB) as the testing medium. […] Quality control organisms include Escherichia coli ATCC 25922, Escherichia coli ATCC 35218, Enterococcus faecalis ATCC 29212, Pseudomonas aeruginosa ATCC 27853, and Staphylococcus aureus ATCC 29213 were tested concurrently with clinical isolates.

Each structure is given as a SMILES string. In brackets after ≈: the same amount, converted by molar mass. Like-named read-outs stand apart in the source and are kept apart here.

With `C[C@@H](O)[C@H]1C(=O)N2C(C(=O)O)=C(S[C@@H]3CN[C@H](C(=O)Nc4cccc(C(=O)O)c4)C3)[C@H](C)[C@H]12` [Ertapenem, ertapenem], the “% susceptible by CLSI M100 criteria” value in assay [1] (CMYb (33)) is 90.6%; in assay [1] (CTX-M a) it was 98.9%; in assay [1] (DHA(7)), 85.7%; in assay [1] (ESBL (360)), 97.4%; in assay [1] (Non-ESBL (2035)) it was 100%; in assay [1] (Non-ST131 (203)), 97.0%. Besides, in assay [1] (ST131 (222)), the “% susceptible by CLSI M100 criteria” value was 99.1%. Moreover, the MIC50 in assay [1] (CMYb (33)) was 0.06 µg/mL (≈ 0.126 µM); in assay [1] (CTX-M a), 0.03 µg/mL (≈ 0.0631 µM); in assay [1] (DHA(7)), 0.06 µg/mL (≈ 0.126 µM); in assay [1] (ESBL (360)), 0.03 µg/mL (≈ 0.0631 µM); in assay [1] (Non-ESBL (2035)), not above 0.008 µg/mL; in assay [1] (Non-ST131 (203)), 0.015 µg/mL (≈ 0.0315 µM). In addition, the MIC90 in assay [1] (CTX-M a) was found to be 0.12 µg/mL (≈ 0.252 µM); in assay [1] (ESBL (360)), 0.12 µg/mL (≈ 0.252 µM); in assay [1] (Non-ESBL (2035)), 0.015 µg/mL (≈ 0.0315 µM); in assay [1] (ST131 (222)) it was 0.06 µg/mL (≈ 0.126 µM); in assay [2], 1 µg/mL (≈ 2.1 µM). For the same molecule, the “% susceptible” value in assay [1] (against the various subsets) is not below 97.0%. For the same molecule, in assay [1] (isolates carrying plasmid AmpC), the susceptibility rates is on record as 85.7-90.6%.

In general, MIC50 refers to the lowest concentration that inhibits either 50% of growth or 50% of the strains tested, depending on the study. One may read the MIC90 as an inhibitory concentration at the 90% level, which refers to growth in some studies and to a panel of isolates in others.
